Test results published in patent US20240139171A1, “TREATMENT AND/OR REDUCTION OF OCCURRENCE OF MIGRAINE” (CGRP Diagnostics GmbH, priority 2021, published 2024).
Each block holds one compound with its values, some of them ahead of it.

Key:
[1] = tested on: naive central trigeminovascular neurons; conditions: in vivo; cited from earlier work
[2] = tested on: naive wide-dynamic-range (WDR) trigeminovascular neurons in the spinal trigeminal nucleus; assay: Single-unit recording of spontaneous and evoked activity of naive WDR trigeminovascular neurons; format: in vivo, rat; conditions: 30 mg/kg IV
Source text: (§1) Experiments were approved by the Beth Israel Deaconess Medical Center and Harvard Medical School standing committees on animal care, and in accordance with the U. S. National Institutes of Health Guide for the Care and Use of Laboratory Animals. Male and female Sprague-Dawley rats (250-350 g) were anesthetized with urethane (0.9-1.2 g/kg i.p.). They were fitted with an intra-tracheal tube to allow artificial ventilation (0.1 L/min of O2), and an intra-femoral-vein cannula for later infusion of drugs. Rats were placed in a stereotaxic apparatus, and core temperature was kept at 37° C. using a heating blanket. End-tidal CC was continuously monitored and kept within physiological range (3.5-4.5 pCC). Once stabilized, rats were paralyzed with rocuronium bromide (10 mg/ml, 1 ml/hr continuous intravenous infusion) and ventilated. For stimulation of the cranial dura later in the experiment, a 5×5-mm opening was carefully carved in the parietal and occipital bones in front and behind the lambda suture, directly above the left transverse sinus. The exposed dura was kept moist using a modified synthetic interstitial fluid (135 mM NaCl, 5 mM KCl, 1 mM MgCh, 5 mM CaCh, 10 mM glucose and 10 mM Hepes, pH 7.2). […]
To record neuronal activity, a tungsten microelectrode (impedance 3-4 MO) was lowered repeatedly into the spinal trigeminal nucleus (STN) in search of central trigeminovascular neurons receiving convergent input from the dura and facial skin. […] Responses to mechanical stimulation of the skin were determined by applying brief (10 s) innocuous and noxious stimuli to the most sensitive portion of the cutaneous receptive field. […] Real-time waveform discriminator was used to create and store a template for the action potential evoked in the neuron under study by electrical pulses on the dura; spikes of activity matching the template waveform were acquired and analyzed online and offline using Spike 2 software (CED, Cambridge, UK). […]

[3] = tested on: naive high-threshold (HT) trigeminovascular neurons in the spinal trigeminal nucleus; assay: Single-unit recording of spontaneous and evoked activity of naive HT trigeminovascular neurons; format: in vivo, rat; conditions: 30 mg/kg IV
Source text: (§2) Experiments were approved by the Beth Israel Deaconess Medical Center and Harvard Medical School standing committees on animal care, and in accordance with the U. S. National Institutes of Health Guide for the Care and Use of Laboratory Animals. Male and female Sprague-Dawley rats (250-350 g) were anesthetized with urethane (0.9-1.2 g/kg i.p.). They were fitted with an intra-tracheal tube to allow artificial ventilation (0.1 L/min of O2), and an intra-femoral-vein cannula for later infusion of drugs. Rats were placed in a stereotaxic apparatus, and core temperature was kept at 37° C. using a heating blanket. End-tidal CC was continuously monitored and kept within physiological range (3.5-4.5 pCC). Once stabilized, rats were paralyzed with rocuronium bromide (10 mg/ml, 1 ml/hr continuous intravenous infusion) and ventilated. For stimulation of the cranial dura later in the experiment, a 5×5-mm opening was carefully carved in the parietal and occipital bones in front and behind the lambda suture, directly above the left transverse sinus. The exposed dura was kept moist using a modified synthetic interstitial fluid (135 mM NaCl, 5 mM KCl, 1 mM MgCh, 5 mM CaCh, 10 mM glucose and 10 mM Hepes, pH 7.2). For single-unit recording in the spinal trigeminal nucleus, a segment of the spinal cord between the obex and C2 was uncovered from overlying tissues, stripped of the dura mater, and kept moist with mineral oil.
(§3) To record neuronal activity, a tungsten microelectrode (impedance 3-4 MO) was lowered repeatedly into the spinal trigeminal nucleus (STN) in search of central trigeminovascular neurons receiving convergent input from the dura and facial skin. Trigeminovascular neurons were first identified based on their responses to electrical stimulation of the dura. […] Dural receptive fields were mapped by indenting the dura (with the 4.19 g VFH monofilament) at points separated by 1 mm mediolaterally and rostrocaudally. Points at which dural indentation produced a response in >50% of the trials were considered inside the neurons receptive field. Cutaneous receptive fields were mapped by applying innocuous and noxious mechanical stimulation to all facial skin areas and the cornea. An area was considered outside the receptive field if no stimulus produced a response in >50% of the trials. Responses to mechanical stimulation of the skin were determined by applying brief (10 s) innocuous and noxious stimuli to the most sensitive portion of the cutaneous receptive field. Innocuous stimuli consisted of slowly passing a soft bristled brush across the cutaneous receptive field (one 5-s brush stroke from caudal to rostral and one 5-s brush stroke from rostral to caudal) and pressure applied with a loose arterial clip. Noxious stimuli consisted of pinch with a strong arterial clip (Palecek et al, 1992, J. Neurophysiol. 67: 1562-1573; Dado et al, 1994, J. Neurophysiol. 71:981-1002; Burstein et al., 1998, J. Neurophysiol. 79:964-982). More intense or prolonged stimuli were not used to avoid inducing prolonged changes in spontaneous neuronal discharge or response properties. Responses to mechanical stimulation of the cornea consisted of gentle and slow brushing strokes with a thin paintbrush (about 10 hair-follicles). Two classes of neurons were thus identified: wide-dynamic-range (WDR) neurons (incrementally responsive to brush, pressure and pinch), and high-threshold (HT) neurons (unresponsive to brush). Real-time waveform discriminator was used to create and store a template for the action potential evoked in the neuron under study by electrical pulses on the dura; spikes of activity matching the template waveform were acquired and analyzed online and offline using Spike 2 software (CED, Cambridge, UK). Induction and recording of cortical spreading depression.
(§4) Cortical spreading depression (CSD) was induced mechanically by inserting a glass micropipette (tip diameter 25 μm) about 1 mm into the visual cortex for 10 sec. […]

[4] = tested on: wide-dynamic-range (WDR) trigeminovascular neurons; assay: Activation of WDR trigeminovascular neurons by cortical spreading depression (CSD); format: in vivo, rat; conditions: male and female rats, 30 mg/kg IV
Source text: as §1, with “ventilated.” for “ventilated. For stimulation of the cranial dura later in the experiment, a 5×5-mm opening was carefully carved in the parietal and occipital bones in front and behind the lambda suture, directly above the left transverse sinus. The exposed dura was kept moist using a modified synthetic interstitial fluid (135 mM NaCl, 5 mM KCl, 1 mM MgCh, 5 mM CaCh, 10 mM glucose and 10 mM Hepes, pH 7.2).”
To record neuronal activity, a tungsten microelectrode (impedance 3-4 MO) was lowered repeatedly into the spinal trigeminal nucleus (STN) in search of central trigeminovascular neurons receiving convergent input from the dura and facial skin. […] Responses to mechanical stimulation of the skin were determined by applying brief (10 s) innocuous and noxious stimuli to the most sensitive portion of the cutaneous receptive field. […]

[5] = tested on: high-threshold (HT) trigeminovascular neurons; assay: Activation and sensitization of HT trigeminovascular neurons by cortical spreading depression (CSD); format: in vivo, rat; conditions: 30 mg/kg IV; for mean firing rate of HT neurons before CSD: before CSD (4 hours post-treatment)
Source text: as §2, §3, §4

meningeal Aδ-fibers = conditions: in vivo; cited from earlier work
[6] = female rats, 2 hours after CSD, 6 hours after administration
[7] = male and female rats, 2 hours after CSD, 6 hours after administration
[8] = male rats, 2 hours after CSD, 6 hours after administration

Compound: NCCCC[C@H](NC(=O)[C@@H](Cc1cc(Br)c(O)c(Br)c1)NC(=O)N1CCC(N2Cc3ccccc3NC2=O)CC1)C(=O)N1CCN(c2ccncc2)CC1 [BIBN4096BS]
effect on naive central trigeminovascular neurons responses to electrical stimulation of the superior sagittal sinus and microiontophoretic L-glutamate [1]: inhibits

WDR neurons activated by CSD (case-by-case analysis) ([4]; activated/tested neurons): 5/13
Compound: fremanezumab [CGRP-mAb]
effect on spontaneous activity of WDR neurons ([2]; female rats): did not reduce the spontaneous activity of HT or WDR neurons
effect on sensitivity of WDR neurons to mechanical stimulation of the dura ([2]; male and female rats): but not the WDR neurons
effect on responses of WDR neurons to innocuous (brush, pressure) or noxious (pinch) mechanical stimulation of the skin or the cornea ([2]; male or female rats): did not alter the responses of HT or WDR neurons
decrease in firing of HT neurons to mechanical stimulation of the dura ([3]; female rats): 61%
effect on spontaneous activity of HT neurons ([3]; female rats): did not reduce the spontaneous activity of HT or WDR neurons
effect on sensitivity of HT neurons to mechanical stimulation of the dura ([3]; male and female rats): reduced the sensitivity to mechanical stimulation of the dura in the HT
effect on responses of HT neurons to innocuous (brush, pressure) or noxious (pinch) mechanical stimulation of the skin or the cornea ([3]; male or female rats): did not alter the responses of HT or WDR neurons
decrease in firing of HT neurons to mechanical stimulation of the dura ([3]; male rats): 75%
effect on spontaneous activity of HT neurons ([3]; male rats): reduced the spontaneous activity of the HT
decrease in spontaneous neuronal firing of HT neurons ([3]; male rats, within 3-4 hrs): 90%
difference in proportion of WDR neurons activated by CSD, CGRP-mAb vs isotype-conAb [4]: 2%
HT neurons with expanded dural receptive fields after CSD ([5]; female rats): 0/6
HT neurons with expanded facial receptive fields after CSD ([5]; female rats): 0/6
change of HT response to brushing the cornea after CSD ([5]; female rats): remained unchanged
HT neuronal responses to dural indentation with VFH after CSD [5, 6]: 8.1±6.4 spikes/sec
mean firing rate of HT neurons after CSD [5, 6]: 5.0±3.4 spikes/sec
HT neuronal responses to dural indentation with VFH before CSD ([5]; female rats, before CSD): 10.5±1.6 spikes/sec
mean firing rate of HT neurons before CSD ([5]; female rats): 3.3±1.7 spikes/sec
difference in proportion of HT neurons activated by CSD, CGRP-mAb vs isotype-conAb ([5]; male and female rats): 86%
change of HT neuronal responses to brush after CSD [5, 7]: remained unchanged
change of HT neuronal responses to pinch after CSD [5, 7]: remained unchanged
change of HT neuronal responses to pressure after CSD [5, 7]: remained unchanged
HT neurons activated by CSD (case-by-case analysis) ([5]; male and female rats, activated/tested neurons): 2/14
HT neurons with expanded dural receptive fields after CSD ([5]; male rats): 2/8
HT neurons with expanded facial receptive fields after CSD ([5]; male rats): 2/8
HT neuronal responses to dural indentation with VFH after CSD [5, 8]: 1.9±1.5 spikes/sec
mean firing rate of HT neurons after CSD [5, 8]: 1.9±1.5 spikes/sec
HT responses to corneal stimulation after CSD ([5]; male rats, after CSD): 9. ±1.8 spikes/sec
HT neuronal responses to dural indentation with VFH before CSD ([5]; male rats, before CSD): 1.8±0.6 spikes/sec
HT responses to corneal stimulation before CSD ([5]; male rats, before CSD): 10.8±3.3 spikes/sec
mean firing rate of HT neurons before CSD ([5]; male rats): 1.2±0.6 spikes/sec
effect on meningeal Aδ-fibers (meningeal Aδ-fibers): inhibits
